Data set [1] can be described thus: Pseudo-first-order reversible esterification with pinacol (LCMS kinetics). The data set is classed as physicochemical. As to the method: A small-molecule model compound, azobenzene 1, was first designed, in which the boronic acid was positioned ortho to the azo group (FIG. 5). Irradiation of (E)-1 with 365-nm light provided a 88:12 mixture of Z and E isomers. This mixture was subjected to excess pinacol in acetonitrile-water (1:1 v/v, 25° C.) to determine the apparent rates and equilibrium constants of boronic acid (1) esterification and boronic ester (2) hydrolysis for each isomer. While other 1,2- and 1,3-diols were hydrolyzed too quickly to be studied, the unusually slow rate of pinacol hydrolysis allowed the E and Z isomers to be resolved and their reaction kinetics to be monitored by high-performance liquid chromatography (HPLC; see Supporting Information (SI) for details).
After 8 hours, the reactions had reached equilibrium, with 39% conversion of (Z)-1 to (Z)-2 and only 9% conversion of (E)-1 to (E)-2 (FIG. 6A). Using a reversible pseudo-first-order kinetic model, it was determined that the esterification of (Z)-1 was 2.1 times faster than the esterification of (E)-1 (k1) (FIG. 6B, Table 1). The rates of hydrolysis could also be extracted from this model: (E)-2 underwent hydrolysis 2.0 times faster than (Z)-2 did (k−1). These apparent rate constants for hydrolysis were verified by hydrolyzing a mixture of (E)-2 and (Z)-2 under irreversible pseudo-first-order conditions (FIGS. 6C and 6D). Taken together, the apparent equilibrium to form boronic ester from boronic acid and pinacol is 4.3 times more favorable for the Z isomer relative to the E isomer. While convenient for small-molecule kinetic studies, the rate of pinacol ester formation is too slow to be practical for gelation. Thus, a less sterically hindered diol was used for hydrogel studies.
Stock solutions of (E)-1 or (E)-2 were prepared in acetonitrile at 800 μM. Serial dilutions were performed to obtain a final concentration of 12.5 μM. The solutions were directly injected onto the LCMS (Poroshell 120 column, EC-C18, 2.7 μm, 2.1×50 mm). Runs were ten minutes long with solvent gradient from 50:50 to 100:0 ACN:H2O in the first three minutes. Detection was performed at 254 nm with a variable-wavelength detector. The peak area for each concentration was recorded. A calibration curve was created. […] The concentration of the Z-isomer can be calculated from the known concentration of the E-isomer (based on the previously-generated calibration curve).
500 μL of a stock solution of 800 μM of (E)-1 was diluted with 500 μL of 80 mM of pinacol in DI water. The concentrations of (E)-1 and (E)-2 were monitored as a function of time using the above LCMS method. The observed rate constants of esterification (k1(E)) and hydrolysis (k−1(E)) were determined using the derivation shown below.
The data from the concentrations vs. time experiments was fit to the linear expression (1) for a reversible first order reaction and yields the slope denoted as equation (4). […] With the apparent equilibrium constant and slope known, the rates of hydrolysis can be determined with equation (5), and subsequently the rate of esterification can be determined.
500 μL of a stock solution of 800 μM of (E)-1 was irradiated with a 365 nm flashlight for 10 minutes to produce a mixture of (E)-1 and (Z)-1. The mixture was then diluted with 500 μL of a 80 mM pinacol solution in DI water, and the concentrations of (E)-2 and (Z)-2 were monitored as a function of time using the above LCMS method. […]

A short description of data set [2]: Pseudo-first-order irreversible hydrolysis of boronic ester (LCMS kinetics). The note with it: obtained from the irreversible hydrolysis experiments; 1:1 ACN:H2O; average of three experiments. The data set is classed as physicochemical. The protocol: After 8 hours, the reactions had reached equilibrium, with 39% conversion of (Z)-1 to (Z)-2 and only 9% conversion of (E)-1 to (E)-2 (FIG. 6A). Using a reversible pseudo-first-order kinetic model, it was determined that the esterification of (Z)-1 was 2.1 times faster than the esterification of (E)-1 (k1) (FIG. 6B, Table 1). The rates of hydrolysis could also be extracted from this model: (E)-2 underwent hydrolysis 2.0 times faster than (Z)-2 did (k−1). These apparent rate constants for hydrolysis were verified by hydrolyzing a mixture of (E)-2 and (Z)-2 under irreversible pseudo-first-order conditions (FIGS. 6C and 6D). […]
Stock solutions of (E)-1 or (E)-2 were prepared in acetonitrile at 800 μM. […] The peak area for each concentration was recorded. […] The concentration of the Z-isomer can be calculated from the known concentration of the E-isomer (based on the previously-generated calibration curve).
500 μL of a stock solution of 800 μM of (E)-2 was irradiated with a 365 nm flashlight for 10 minutes to produce a mixture of (E)-2 and (Z)-2. The mixture was then diluted with 500 μL of DI H2O and the concentration of (E)-2 and (Z)-2 was monitored as a function of time. The observed rate constants of hydrolysis k−1(E) and k−1(Z) were determined using the derivation shown below. […]

The mark [3] stands for this setting: reversible esterification, 400 μM with 40 mM pinacol, 1:1 ACN:H2O, 25° C., average of three experiments.

Turning to `COC(=O)c1ccc(/N=N/c2ccccc2B(O)O)cc1` [(E)-1, (E)-(2-((4-(methoxycarbonyl)phenyl)diazinyl)phenyl)boronic acid], the “conversion of boronic acid to boronic ester at equilibrium” value in data set [1] (after 8 hours, excess pinacol, acetonitrile-water 1:1 v/v, 25° C.) came to 9%. In data set [1] (setting [3]), the “Keq [a] apparent equilibrium constant” value came to 0.090 ± 0.016 and the “k1 [a] apparent rate constant of esterification” value is 2.56 ± 0.28 × 10^−5 s^−1.

In the case of `COC(=O)c1ccc(/N=N/c2ccccc2B2OC(C)(C)C(C)(C)O2)cc1` [(E)-2, Methyl (E)-4-((2-(4,4,5,5-tetramethyl-1,3,2,-dioxaborolan-2-yl)phenyl)diazinyl)benzoate], the “k−1 [b] apparent rate constant of hydrolysis” value in data set [2] was 2.83 ± 0.06 × 10^−4 s^−1. Further, in data set [1] (obtained from the reversible esterification experiment, 1:1 ACN:H2O, average of three experiments), the “k−1 [a] apparent rate constant of hydrolysis” value is listed as 2.76 ± 0.32 × 10^−4 s^−1. Further, in data set [1] (ratio E isomer to Z isomer), the “hydrolysis rate (k−1), times faster than (Z)-2” value was 2.0 times.

Values taken from patent publication US11820870B2, “Photocontrolled dynamic covalent linkers for polymer networks” (Northwestern University, priority 2018, dated 2023).
